Measurements taken from PMC9967700, “Metabolism-Guided Optimization of Tryptophanol-Derived Isoindolinone p53 Activators” (Pharmaceuticals, 2023).
Like-named read-outs stand apart in the source and are kept apart here.

Tests used:
HCT116 p53−/− cells = test: Antiproliferative activity, sulforhodamine B (SRB) assay; format: cell-based, human; settings: 48 h treatment, mean ± SEM of 3–5 independent experiments, read-out: HCT116 p53−/− GI50
Description: (§1) Tumor cells were cultured in RPMI-1640 with UltraGlutamine (Lonza, VWR), supplemented with 10% fetal bovine serum (FBS; Gibco, Alfagene) and maintained in a humidified incubator at 37 °C with 5% CO2. Cell lines were seeded in 96-well plates at the cells/well density of 5.0 × 10^3.

HCT116 p53+/+ cells = test: as above; format: cell-based, human
Description: as §1

[1] = Human liver microsomes incubations: half-life and intrinsic clearance; format: in vitro ADME
Description: For the generation of Phase I metabolites: tested compounds, at a 10 μM concentration (1 μL of 5 mM DMSO stock solution), were incubated with HLM (1 mg protein/mL), Vivid® regenerating system (5 μL) and NADPH (1mM) in ABIC 50 mM buffer pH 7.4, for a total incubation volume of 500 μL. Incubations were run in duplicate, at 37 °C. Aliquots were collected at 0, 5, 10, 20, 30, 40, 50, 60, 75, 90, 120, 180 min and reactions were stopped by adding and ice-cold solution of reserpine (2.5 μM) in acetonitrile. Additional aliquots were taken at 0 and 120 min and subsequently treated with L-lysine (100 µM) and sodium cyanoborohydride (10 µM) or glutathione (100 µM). Following centrifugation (10,000 rpm, 15 min, RT), the clear supernatants were collected and analyzed LC-ESI-HRMS/MS. Control incubations were conducted in the same conditions: (1) using DMSO as negative control, in absence of the test drug; (2) using heat-denatured HLM (90 °C, 15 min); (3) using nevirapine, as a positive control, instead of the tested compound; and (4) in absence of NADPH co-factor.
The in vitro depletion half-lives of tested compounds t1/2 were calculated using Equation (1), assuming that testing compounds follow a first-order kinetic trend. The “slope” was determined from linear fitting of the natural logarithm of the concentration of drug remaining plotted against time:(1) t1/2=ln2/slope
The intrinsic clearance in HLM (CLint, HLM) was calculated using Equation (2):(2) CLint HLM =ln2/ t1/2 x mL incubation/mg microsomes x 45 mg microsomes/g liver x 26 g liver/Kg b.w.

Compound: CCCn1c(Br)c(C[C@H]2CO[C@]3(c4ccccc4)c4ccccc4C(=O)N23)c2ccccc21 [Compound 13d, (3S, 9bR)-3-((2-bromo-1-propyl-1H-indol-3-yl)methyl)-9b-phenyl-2,3-dihydrooxazolo[2,3-a]isoindol-5(9bH)-one]
- GI50 (HCT116 p53−/− cells): 7.45 ± 0.95 µM
- GI50 (HCT116 p53−/− cells; Homo sapiens, HCT-116, 48 h): 7.5 µM
- more active than SLMP53-2 (7) (HCT116 p53+/+ cells; HCT116 p53+/+): 2 fold
- S.I. (selectivity index) (HCT116 p53+/+ cells; HCT116 p53−/− versus HCT116 p53+/+): 1.9
- GI50 (HCT116 p53+/+ cells; Homo sapiens, HCT-116, 48 h treatment, mean ± SEM of 3–5 independent experiments, read-out: HCT116 p53+/+ GI50): 4 ± 0.5 µM
- Intrinsic Clearance ([1]; HLM, calculated from half-life (Equation 2)): 5.5 mL/min/kg
- clearance classification ([1]; HLM, classification after ref 32): low clearance
- half-life at 10 μM ([1]; human, liver microsomes, pH 7.4, HLM 1 mg protein/mL, 10 μM, NADPH, 37 °C): 1.53 h
